Measurements taken from patent US20240246931A1, “COMPOUNDS AS PD1/PD-L1 INHIBITORS AND METHODS THEREOF” (JUBILANT PRODEL LLC, priority 2021, published 2024).
Where two headings read alike, the source gives them in different places.

Legend:
[1] = target: T1, PD-1/PD-L1 interaction (Homo sapiens, UniProt Q9NZQ7); test: PD-1/PD-L1 HTRF binding assay (CisBio kit); conditions: HTRF PD1/PD-L1 inhibition assay
T1 construct: purchased CisBio 63ADK000CPAPEG
Method in brief: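 HTRF kit assay: compound was preincubated 15 min with tagged PD-L1 and PD-1 proteins, then Eu-cryptate and XL665 anti-tag antibodies were added for 1 h at room temperature. Readout was the 665/620 nm ratio ×10^4. IC50 was binned as A <100 nM, B 100–500 nM, C >500 nM.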

[2] = Brain exposure study in mice by IV route; assay type: in vivo; conditions: male, Balb/c, mouse; for Kp at 0.5 h: brain/plasma, read-out: Brain/Plasma ratio
Description: Institutional Animal Ethical Committee (IAEC) of Jubilant Biosys (IAEC/JDC/2019/188R (for Mice) and IAEC/JDC/2019/189R (for Rat) nominated by CPCSEA (Committee for the Purpose of Control and Supervision of Experiments on Animals) approved the mice and rat pharmacokinetic experiments. Male Balb/c mice (˜6-8 weeks old with body weight range of 22-25 g) and male SD rats (6-8 weeks old with body weight range of 200-250 g) were procured from Vivo Biotech, Hyderabad, India. Animals were quarantined in Jubilant Biosys Animal House for a period of 7 days with a 12:12 h light: dark cycles, and prior to the study the animals were stratified as per body weight.
Procedure for Mice: Intravenous pharmacokinetics study was done at doses of 5, 10 mg/kg respectively at dose volume 5 mL/kg for IV route. Sparse sampling was done and at each time point three mice were used for blood sampling (˜100 μL) were collected from retro-orbital plexus at 0.083 (Only for IV) and 24 h. Blood samples collected in tubes containing K2 EDTA as anticoagulant and centrifuged for 5 min at 10,000 rpm in a refrigerated centrifuge (Biofuge, Heraeus, Germany) maintained at 4° C. for plasma separation. Group I (IV) received compound by intravenously by tail vein at […] in solution formulation. Blood concentration-time data of compound was analyzed by non-compartmental method using Phoenix WinNonlin Version 8.1.
Brain Exposure Study in Mice
The mice were placed in isoflurane anesthesia chamber; following complete anesthesia (3-5% isoflurane) blood sample (0.5 mL) was collected from retro-orbital plexus using mice capillary.
The mice were sacrificed by cervical dislocation. The dorsal surface of the skull was peeled away from the brain using bone cutter, dura matter was gently removed from surface of brain with help of forceps. Brain was gently taken out away from the head and placed in PBS buffer to remove blood. Brain was placed on blotting paper to remove the blood spots and transferred in pre-labelled tube. The isolated brain was weighed and homogenised using 5× volume of phosphate buffer saline (pH-7.4). During homogenization the brain homogenate was kept in ice till sample processing. The homogenate was processed by specified extraction process and analyzed by LC-MS/MS.
Evaluation of Brain Exposure Data by IV Route

[3] = Metabolic stability in human liver microsomes; assay type: in vitro ADME; conditions: human liver microsomes 1.0 mg/mL, compound 1 μM, NADPH, first number of HLM/MLM cell
Description: (§1) Metabolic Stability in Liver Microsomes
(§2) The purpose of this experiment is to measure the metabolic half-life of NCEs in sub-cellular fractions such as human liver microsomes (HLM) or mouse liver microsomes (MLM). This provides an in vitro means to calculate intrinsic hepatic clearance, and to support the prediction of human pharmacokinetics. This approach has been successfully utilized at early phase of drug discovery projects, to provide SAR input for reducing metabolic instability and for predicting in vivo hepatic clearance.
(§3) Procedure: Potassium phosphate buffer (66.7 mM, pH 7.4) containing liver microsomes (mouse and human) (1.0 mg/mL) was pre-incubated separately with compound (1 μM) and positive control (verapamil, 1 μM) in a 37° C. water bath for 5 min. The reactions were initiated by adding 20 μL of 10 mM NADPH. Reactions without NADPH (0 and 30 min) were also incubated to rule out non-NADPH metabolism or chemical instability in the incubation buffer. All reactions were terminated using 200 μL of ice-cold acetonitrile containing internal standard at 0, 5, 15 and 30 min. The vials were centrifuged at 3000 rpm for 15 min. The supernatants thus obtained were analyzed on LC-MS/MS to monitor the disappearance of test compound.

[4] = Metabolic stability in mouse liver microsomes; assay type: in vitro ADME; conditions: mouse liver microsomes 1.0 mg/mL, compound 1 μM, NADPH, second number of HLM/MLM cell
Description: as §1, §2, §3

T1 sequence (Q9NZQ7 19-238 limits assumed): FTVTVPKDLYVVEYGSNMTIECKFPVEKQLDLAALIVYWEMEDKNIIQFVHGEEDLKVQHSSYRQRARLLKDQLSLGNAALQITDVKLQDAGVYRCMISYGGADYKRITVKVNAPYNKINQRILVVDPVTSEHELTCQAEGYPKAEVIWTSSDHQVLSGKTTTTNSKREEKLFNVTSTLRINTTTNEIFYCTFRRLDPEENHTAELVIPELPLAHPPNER

| Structure (SMILES) | IC50 [1] [nM] | concentration at 0.5 h ([2]; brain, 10 mg/kg, 10 mpk, read-out: Brain (ng/g) Mean) [ng/g] | Kp at 0.5 h ([2]; 10 mg/kg, 10 mpk) | concentration at 0.5 h ([2]; plasma, 10 mg/kg, 10 mpk, read-out: Plasma (ng/mL) Mean) [ng/mL] | HLM % remaining @ 30 min [3] | MLM % remaining @ 30 min [4] | concentration at 0.5 h ([2]; brain, 5 mg/kg, 5 mpk, read-out: Brain (ng/g) Mean) [ng/g] | Kp at 0.5 h ([2]; 5 mg/kg, 5 mpk) | concentration at 0.5 h ([2]; plasma, 5 mg/kg, 5 mpk, read-out: Plasma (ng/mL) Mean) [ng/mL] |
| --- | --- | --- | --- | --- | --- | --- | --- | --- | --- |
| Cc1c(COc2cc(OCCF)c(CN3CCCC[C@H]3CO)c3c2CCC3)cccc1-c1ccccc1 [Example 27, (S)-(1-((5-(2-fluoroethoxy)-7-((2-methyl-[1,1′-biphenyl]-3-yl)methoxy)-2,3-dihydro-1H-inden-4-yl)methyl)piperidin-2-yl)methanol] | < 100 | 11600 | 12.2 | 949 | 91% | 84% |  |  |  |
| Cc1c(COc2cc(OCCF)c(CN3CCC[C@H]3CO)c3c2CCC3)cccc1-c1ccccc1 [Example 28, (S)-(1-((5-(2-fluoroethoxy)-7-((2-methyl-[1,1′-biphenyl]-3-yl)methoxy)-2,3-dihydro-1H-inden-4-yl)methyl)pyrrolidin-2-yl)methanol] | < 100 |  |  |  | 74% | 82% |  |  |  |
| N#Cc1c(COc2cc(OCCF)c(CN3CCCC[C@H]3CO)c3c2CCC3)cccc1-c1ccccc1 [Example 29, (S)-3-(((6-(2-fluoroethoxy)-7-((2-(hydroxymethyl)piperidin-1-yl)methyl)-2,3-dihydro-1H-inden-4-yl)oxy)methyl)-[1,1′-biphenyl]-2-carbonitrile] | < 100 |  |  |  | 56% | 71% |  |  |  |
| Cc1c(COc2cc(OCCCCCF)c(CN3CCCC[C@H]3CO)c3c2CCC3)cccc1-c1ccccc1 [Example 30, (S)-(1-((5-((5-fluoropentyl)oxy)-7-((2-methyl-[1,1′-biphenyl]-3-yl)methoxy)-2,3-dihydro-1H-inden-4-yl)methyl)piperidin-2-yl)methanol] | < 100 |  |  |  | 57% | 74% |  |  |  |
| Cc1c(COc2cc(OCCCCF)c(CN3CCCC[C@H]3CO)c3c2CCC3)cccc1-c1ccccc1 [Example 31, (S)-(1-((5-(4-fluorobutoxy)-7-((2-methyl-[1,1′-biphenyl]-3-yl)methoxy)-2,3-dihydro-1H-inden-4-yl)methyl)piperidin-2-yl)methanol] | < 100 |  |  |  | 65% | 79% | 2450 | 4.9 | 501 |
| Cc1c(COc2cc(OCCCF)c(CN3CCCC[C@H]3CO)c3c2CCC3)cccc1-c1ccccc1 [Example 32, (S)-(1-((5-(3-fluoropropoxy)-7-((2-methyl-[1,1′-biphenyl]-3-yl)methoxy)-2,3-dihydro-1H-inden-4-yl)methyl)piperidin-2-yl)methanol] | < 100 |  |  |  | 81% | 84% |  |  |  |
| Cc1c(COc2cc(OCc3cccc(C#N)c3)c(CN3CCCC4CC43CO)c3c2CCC3)cccc1-c1ccccc1 (stereo not drawn) [Example 34, 3-(((4-((1-(hydroxymethyl)-2-azabicyclo[4.1.0]heptan-2-yl)methyl)-7-((2-methyl-[1,1′-biphenyl]-3-yl)methoxy)-2,3-dihydro-1H-inden-5-yl)oxy)methyl)benzonitrile] | < 100 |  |  |  | 8% | 5% |  |  |  |
| Cc1c(COc2cc(OCc3cncc(C#N)c3)c(CN3CCCC4CC43CO)c3c2CCC3)cccc1-c1ccccc1 (stereo not drawn) [Example 35, 5-(((4-((1-(hydroxymethyl)-2-azabicyclo[4.1.0]heptan-2-yl)methyl)-7-((2-methyl-[1,1′-biphenyl]-3-yl)methoxy)-2,3-dihydro-1H-inden-5-yl)oxy)methyl)nicotinonitrile] | < 100 |  |  |  | 3/3% | 3/3% |  |  |  |
| Cc1c(COc2cc(OCc3cncc(C(N)=O)c3)c(CN3CCCC[C@H]3CO)c3c2CCC3)cccc1-c1ccccc1 [Example 37, (S)-5-(((4-((2-(hydroxymethyl)piperidin-1-yl)methyl)-7-((2-methyl-[1,1′-biphenyl]-3-yl)methoxy)-2,3-dihydro-1H-inden-5-yl)oxy)methyl)nicotinamide] | < 100 |  |  |  | 86% | 88% |  |  |  |
| Cc1c(COc2cc(OCc3cccc(C(N)=O)c3)c(CN3CCC[C@H]3CO)c3c2CCC3)cccc1-c1ccccc1 [Example 38, (S)-3-(((4-((2-(hydroxymethyl)pyrrolidin-1-yl)methyl)-7-((2-methyl-[1,1′-biphenyl]-3-yl)methoxy)-2,3-dihydro-1H-inden-5-yl)oxy)methyl)benzamide] | < 100 |  |  |  | 78% | 84% |  |  |  |
| Cc1c(COc2cc(OCc3cc(C#N)c[n+]([O-])c3)c(CN3CCC[C@H]3CO)c3c2CCC3)cccc1-c1ccccc1 [Example 44, (S)-3-cyano-5-(((4-((2-(hydroxymethyl)pyrrolidin-1-yl)methyl)-7-((2-methyl-[1,1′-biphenyl]-3-yl)methoxy)-2,3-dihydro-1H-inden-5-yl)oxy)methyl)pyridine 1-oxide] | < 100 |  |  |  | 33% | 15% |  |  |  |
